From PubChem BioAssay AID602356 (Sanford-Burnham Center for Chemical Genomics, 2012) come the findings set out here.

Where “and” joins values, the source holds several entries; their conditions need not be identical. Equal entries are not always repeated. Calls of active or inactive are those of the source. The rule behind the calls is not given here.

What is called EC50 is the midpoint of the concentration-response curve.

The target of the test is Neurotensin receptor type 1 (Homo sapiens) (UniProt P30989). Nature of the test: neurotensin receptor 1 activation – imaging, image-based, set 3, SAR follow-up (AID 602356). Conditions: NTR1 image-based agonist assay, cellular imaging.
Chain of Neurotensin receptor type 1 (Homo sapiens) (P30989 whole entry, looked up): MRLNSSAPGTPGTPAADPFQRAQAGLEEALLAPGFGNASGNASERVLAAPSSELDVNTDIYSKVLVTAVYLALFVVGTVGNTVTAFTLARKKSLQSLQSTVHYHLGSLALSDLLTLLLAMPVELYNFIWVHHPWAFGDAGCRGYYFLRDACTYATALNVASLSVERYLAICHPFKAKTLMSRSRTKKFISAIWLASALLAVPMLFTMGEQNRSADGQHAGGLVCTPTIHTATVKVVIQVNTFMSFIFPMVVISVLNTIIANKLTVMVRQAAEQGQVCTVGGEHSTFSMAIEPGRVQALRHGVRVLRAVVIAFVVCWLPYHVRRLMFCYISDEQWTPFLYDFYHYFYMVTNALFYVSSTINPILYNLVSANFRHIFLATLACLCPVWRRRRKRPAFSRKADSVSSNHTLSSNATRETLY
`COc1cc2c3nnc(-c4ccccc4)c-3cn(Cc3ccc(F)cc3)c2cc1OC`: the EC50 is 16.6 µM.

Take `COc1cc2c3nnc(-c4ccc(F)cc4)c-3cn(Cc3ccc(F)cc3)c2cc1OC`: the EC50 was 11.1 µM. As to `COc1ccc(-c2nnc3c4ccccc4n(Cc4ccc(C)cc4)cc2-3)cc1`, the EC50 was > 80 µM (inactive).

Regarding `CCc1ccc(-c2nnc3c4cc(OC)c(OC)cc4n(Cc4ccc(F)cc4)cc2-3)cc1`, the EC50 is 9.22 µM.

Regarding `CCOC(=O)c1cc(-c2c(OC)cccc2OC)n(-c2ccnc3cc(Cl)ccc23)n1`, the EC50 is > 80 µM (inactive). On to `COc1cc2c3nnc(-c4ccc(F)cc4)c-3cn(Cc3ccccc3)c2cc1OC`, for which the EC50 was 7.24 µM and 7.42 µM. With `CCOc1ccc(-c2nnc3c4cc(OC)c(OC)cc4n(Cc4ccc(C)cc4)cc2-3)cc1`, the EC50 was 13 µM.

`COc1ccc(-c2nc(C(=O)N[C@@H](CC(C)C)C(=O)O)cn2-c2ccnc3cc(Cl)ccc23)c(OC)c1`: the EC50 is > 80 µM (inactive).

Regarding `Cc1ccc(Cn2cc3c(-c4ccc(F)cc4)nnc-3c3cc4c(cc32)OCO4)cc1`, the EC50 is 5.49 µM and 8.2 µM. Take `COc1ccccc1-c1cc(C(=O)N[C@@H](CC(C)C)C(=O)O)nn1-c1ccnc2cc(Cl)ccc12`: the EC50 is 0.966 µM. Regarding `COc1cc2nc(C3CC3)nc(N3CCN(S(=O)(=O)c4ccccc4)CC3)c2cc1OC`, the EC50 was > 80 µM (inactive).

`CCOc1cc2nc(-c3ccc(OC)c(OC)c3)nc(N3CCN(c4ccccc4)CC3)c2cc1OC`: the EC50 was > 80 µM (inactive). As to `COc1ccc2nc(C3CC3)nc(N3CCN(c4ccccc4OC)CC3)c2c1`, the EC50 is 4.1 µM. Turning to `COc1cc2c3nnc(-c4ccc(Cl)cc4)c-3cn(Cc3ccc(F)cc3)c2cc1OC`, the EC50 is 2.95 µM. Take `COc1cc2c3nnc(-c4ccc(F)cc4)c-3cn(Cc3ccccn3)c2cc1OC`: the EC50 entry is “inactive”. Regarding `COc1cc2c3nnc(-c4ccc(F)cc4)c-3cn(Cc3ccc(OC(F)(F)F)cc3)c2cc1OC`, the EC50 was 12.3 µM. On to `COc1cccc(OC)c1-c1cc(C(=O)NC2(C(=O)O)C3CC4CC(C3)CC2C4)nn1-c1ccc(C(=O)N(C)CCCN(C)C)cc1C(C)C` (stereo not given), for which the EC50 was > 80 µM (inactive).

Take `CCc1ccc(-c2nnc3c4cc(OC)c(OC)cc4n(Cc4ccccc4)cc2-3)cc1`: the EC50 result was “inactive”. On to `COc1cc2c3nnc(-c4ccc(F)cc4)c-3cn(Cc3ccccc3N(C)C)c2cc1OC`, for which the EC50 was 4.36 µM and 4.14 µM. As for `COc1ccc(N2CCN(c3nc(C4CCC4)nc4cc(OC)c(OC)cc34)CC2)cc1`, the entry is “inactive”; as for `CCn1cc2c(-c3ccc(F)cc3)nnc-2c2cc(OC)c(OC)cc21`, > 80 µM (inactive). With `COc1cc2ncc3c(-c4ccc(F)cc4)n[nH]c3c2cc1OC`, the EC50 was > 80 µM (inactive).

As to `COc1cc2nc(-c3ccccc3)nc(N3CCN(c4ccc(Cl)cc4)CC3)c2cc1OC`, the EC50 is > 80 µM (inactive). To `COc1ccc2c(c1)c1nnc(-c3ccc(F)cc3)c-1cn2Cc1ccc(F)cc1` belongs 13.9 µM; to `Cc1cccc(C)c1-c1nc(C(=O)N[C@@H](CC(C)C)C(=O)O)cn1-c1ccnc2cc(Cl)ccc12`, 9.23 µM; to `CCCc1nc(N2CCN(c3ccccc3OC)CC2)c2cc(OC)c(OC)cc2n1`, 16.6 µM.

As to `COc1cc2nc(C3CC3)nc(N3CCN(c4ccccc4Cl)CC3)c2cc1OC`, the EC50 was 19.8 µM.

As for `COc1cc2c3nnc(-c4ccccc4)c-3cn(Cc3ccc(C)cc3)c2cc1OC`, the EC50 is > 80 µM (inactive). For `COc1ccc(-c2nnc3c4ccccc4n(Cc4ccc(F)cc4)cc2-3)cc1`, the EC50 entry is “inactive”. To `COc1cc2nc(C3CC3)nc(N3CCN(Cc4ccc(C)cc4)CC3)c2cc1OC` belongs “inactive”; to `COc1cc2c3nnc(-c4ccc(F)cc4)c-3cn(Cc3cccnc3)c2cc1OC`, > 80 µM (inactive).

With `COc1ccc2c(c1)c1nnc(-c3ccc(F)cc3)c-1cn2Cc1ccc(C)cc1`, the EC50 was > 80 µM (inactive). Regarding `CCc1nc(N2CCN(c3ccccc3OC)CC2)c2cc(OC)c(OC)cc2n1`, the EC50 entry is “inactive”. As for `COc1cc2nc(CC3CC3)nc(N3CCN(c4ccccc4OC)CC3)c2cc1OC`, the EC50 is 14.2 µM. For `COc1cc2nc(C3CCC3)nc(N3CCN(c4ccccc4C)CC3)c2cc1OC`, the EC50 was 14.9 µM.

As to `COc1cccc(OC)c1-c1cc(C(=O)N[C@@H](CC(C)C)C(=O)O)nn1-c1ccnc2cc(Cl)ccc12`, the EC50 was 0.232 µM.

As to `COc1cc2nc(C3CCC3)nc(N3CCN(c4ccccc4[N+](=O)[O-])CC3)c2cc1OC`, the EC50 result was “inactive”. For `COc1ccc(-c2nnc3c4cc(OC)c(OC)cc4n(Cc4ccc(F)cc4)cc2-3)cc1`, the EC50 is > 80 µM (inactive). As for `COc1cc2nc(Cc3ccccc3)nc(N3CCN(c4ccccc4OC)CC3)c2cc1OC`, the figure is 13.8 µM; as for `COc1cc2nc(C)nc(N3CCN(c4ccccc4OC)CC3)c2cc1OC`, > 80 µM (inactive); as for `CCOc1ccc(-c2nnc3c4cc(OC)c(OC)cc4n(Cc4ccccc4)cc2-3)cc1`, 8.92 µM.

Turning to `CCOc1cc2nc(-c3ccc(OC)c(OC)c3)nc(N3CCN(c4ccccc4F)CC3)c2cc1OC`, the EC50 is > 80 µM (inactive). For `COc1cc2c3nnc(-c4ccc(F)cc4)c-3cn(Cc3cccc(N(C)C)c3)c2cc1OC`, the EC50 was > 80 µM (inactive). Turning to `COc1cc2nc(-c3ccccc3)nc(N3CCN(c4ccc(F)cc4)CC3)c2cc1OC`, the EC50 was > 80 µM (inactive). `COc1cc2c3nnc(-c4ccc(F)cc4)c-3cn(Cc3ccc(Cl)cc3)c2cc1OC`: the EC50 is 7.54 µM. Turning to `COc1ccc(-c2nnc3c4cc(OC)c(OC)cc4n(Cc4ccccc4)cc2-3)cc1`, the EC50 was 17 µM. In the case of `COc1cc2c3nnc(-c4ccc(F)cc4)c-3cn(Cc3cccc(C)c3)c2cc1OC`, the EC50 is 6.34 µM and 6.55 µM. In the case of `COc1cc2nc(C3CC3)nc(N3CCNCC3)c2cc1OC`, the EC50 is > 80 µM (inactive). As for `COc1cc2c3nnc(-c4ccc(F)cc4)c-3cn(Cc3ccc(N(C)C)cc3)c2cc1OC`, the figure is > 80 µM (inactive); as for `CC(C)C[C@H](NC(=O)c1cn(-c2ccnc3cc(Cl)ccc23)c(-c2c(Cl)cccc2Cl)n1)C(=O)O`, 5.17 µM; as for `CCn1cc2c(-c3ccc(OC)cc3)nnc-2c2ccccc21`, > 80 µM (inactive). Take `COc1cc2c3nnc(-c4ccc(F)cc4)c-3cn(Cc3ccccc3F)c2cc1OC`: the EC50 was 2.52 µM. Regarding `COc1ccccc1CN1CCN(c2nc(C3CC3)nc3cc(OC)c(OC)cc23)CC1`, the EC50 entry is “inactive”. Take `CC(C)C[C@H](NC(=O)c1cn(-c2ccncc2)c(-c2ccccc2)n1)C(=O)O`: the EC50 was > 80 µM (inactive). For `COc1cc2nc(C3CCC3)nc(N3CCN(c4ccccc4Cl)CC3)c2cc1OC`, the EC50 was 12.2 µM.
